Blank lines part the entries; values can stand above or below the compound they belong to.
Experiments:
PAR-2 [1] = test: PAR signalling activity: calcium mobilization (Fluo-4) in response to peptide; assay type: cell-based; conditions: FIGS. 2A-2C
Procedure: Confluent HUVECs, Lewis lung carcinoma cells or U87-MG glioma cells or HT29 colon carcinoma cells were loaded for 30-60 minutes with the fluorescent dye Fluo-4. Final concentration 4 uM Fluo-4, 0.02% pluronic acid in physiological buffer. Cells were then washed with assay buffer, (HBSS containing 1 mM CaCl2, 1 mM MgSO4, and 2.5 mM probenecid). Cells were stimulated with various doses of PAR-2 activating peptide, PAR-1 activating peptide or ATP. Fluorescence was monitored using a Wallac 1470 fluorescent plate reader. (See Al-ani et. al Journal of Pharmacology and Experimental Therapeutics 290:2, 753-760)
Calcium mobilization curves of the PAR-2 agonist SLIGKV (ENMD-1003) (SEQ ID NO:52) compared with two truncated molecules LIGK (ENMD-1005) (SEQ ID NO:1) and LIGKV (ENMD-1007) (SEQ ID NO:2) are provided in FIG. 2A. […] Similar studies were performed on alanine substituted SLIGKV (ENMD-1003) (SEQ ID NO:52) peptides (FIGS. 2B and 2C).

PAR-2 [2] = test: Inhibition of PAR-2 activating peptide (AP2) calcium signaling in cells pretreated with antagonist; assay type: cell-based, human; parameters: key to PAR-2 AP2 Signaling Treated/Control (T/C) / PAR-2 AP2 Signaling Treated/Control: AUC of calcium mobilization, treated ÷ control wells; conditions: for PAR-2 antagonist activity in vitro (in words): pretreated cells, then P2AP
How it was run: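 LLC cells loaded with Fluo-4 (4 uM final), and U87-MG glioma cells loaded with FLIPR Calcium 3 dye with 2.5 mM probenecid, were pretreated with antagonist, then stimulated with PAR-2 activating peptide. Initial screening was at 1 mM. Calcium AUC of treated over control wells is reported as T/C.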

PAR-1 = target: T1, PAR-1 (Homo sapiens, UniProt P25116); test: Inhibition of PAR-1 activation peptide (SFLLRN) calcium signaling in pretreated cells; assay type: cell-based; conditions: cells pretreated with antagonist
T1 construct: endogenous in cells
T1 sequence (P25116 22-425): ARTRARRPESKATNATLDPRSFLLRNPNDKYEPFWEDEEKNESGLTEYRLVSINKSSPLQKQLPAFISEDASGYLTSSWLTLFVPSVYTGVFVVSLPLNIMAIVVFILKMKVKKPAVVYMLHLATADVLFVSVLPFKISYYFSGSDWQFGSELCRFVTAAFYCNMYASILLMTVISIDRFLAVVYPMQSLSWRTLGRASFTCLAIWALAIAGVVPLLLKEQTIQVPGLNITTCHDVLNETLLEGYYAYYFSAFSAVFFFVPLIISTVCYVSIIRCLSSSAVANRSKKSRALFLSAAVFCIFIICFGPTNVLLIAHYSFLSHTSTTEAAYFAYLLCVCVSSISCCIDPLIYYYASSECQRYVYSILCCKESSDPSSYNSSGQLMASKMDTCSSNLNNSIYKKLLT
Procedure: (§1) In order to assess the potential of peptides and molecules selected above to block PAR-2 signaling, cells were pretreated with potential antagonist peptides for a predetermined amount of time and were subsequently treated with various GPCR agonists. Confluent Lewis lung carcinoma (LLC) cells were loaded for 30-60 minutes with the fluorescent dye Fluo-4. Final concentration 4 uM Fluo-4, 0.02% pluronic acid in physiological buffer. Cells were then washed with assay buffer, (HBSS containing 1 mM CaCl2, 1 mM MgSO4, and 2.5 mM probenecid). Cells were stimulated with various doses of PAR-2 activating peptide, PAR-1 activating peptide or ATP. Fluorescence was monitored using a Wallac 1470 fluorescent plate reader. (See Al-ani et. al Journal of Pharmacology and Experimental Therapeutics 290:2, 753-760). Additional compound screening was performed using U87-MG human glioma cells. In this assay cells were labeled with FLIPR Calcium 3 dye (Component A), which was dissolved in 10 mls of Assay Buffer without Probenecid. Loading buffer was prepared by diluting Component A with an additional 90 mls of Assay Buffer without Probenecid, giving a total volume of a 100 ml. […] Calcium signaling was then measured using a Flexstation II (Molecular Devices) following manufacturer's instructions. […]

ATP signaling = test: Inhibition of ATP calcium signaling in pretreated cells; assay type: cell-based; conditions: cells pretreated with antagonist
Procedure: as §1

PAR-2 [3] = target: T2, PAR-2 (Mus musculus, UniProt P55086); test: PAR-2 agonist peptide induced murine footpad edema model; assay type: in vivo; conditions: co-treatment in footpad, C57BL6 mice, 1 hour
T2 construct: from tissue; host or cells: footpad of living C57BL6 mice
T2 sequence (P55086 26-399): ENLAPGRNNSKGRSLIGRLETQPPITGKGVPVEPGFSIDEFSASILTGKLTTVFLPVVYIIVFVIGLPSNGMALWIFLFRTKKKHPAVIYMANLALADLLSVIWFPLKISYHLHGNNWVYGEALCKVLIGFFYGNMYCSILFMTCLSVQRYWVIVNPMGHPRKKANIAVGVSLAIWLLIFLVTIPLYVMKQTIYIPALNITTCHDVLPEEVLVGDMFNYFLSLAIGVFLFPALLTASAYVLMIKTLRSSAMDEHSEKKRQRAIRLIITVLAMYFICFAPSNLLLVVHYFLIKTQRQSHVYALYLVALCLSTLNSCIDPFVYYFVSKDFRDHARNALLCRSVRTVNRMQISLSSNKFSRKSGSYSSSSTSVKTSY
Procedure: C57BL6 mice were injected with 5-25 μg of SLIGKV (ENMD-1003) (SEQ ID NO:52) into their footpad, in the presence or absence of increasing amounts of various PAR-2 antagonists. One hour later, footpad (tarsus) thickness was measured to quantify inflammation (edema).
The inventors next assessed whether the LIGK (ENMD-1005) (SEQ ID NO:1) peptide had in vivo PAR-2 antagonistic activity. This was studied using an edema model where vascular permeability was induced by the PAR-2 agonist peptide. In this model, the PAR-2 peptide induces severe edema as previously reported (FIG. 6). This vascular response was blocked by co-treatment with the PAR-2 antagonist LIGK (ENMD-1005) (SEQ ID NO:1) (FIG. 6). Thus, LIGK (ENMD-1005) (SEQ ID NO:1) functions in vivo to block PAR-2 signaling.

[4] = test system: angiogenesis in Matrigel plug, C57/BL6 mice; test: In vivo Matrigel angiogenesis assay (FGF-2, hemoglobin content in the plug); parameters: species or system mouse; conditions: subcutaneously daily for 6 days
BALB/c mice, arthritis = test: Anti-collagen II antibody/LPS arthritis in mice (hind feet thickness); assay type: in vivo, mouse; conditions: 200 mg/kg/day intraperitoneally for 7 days
Procedure: (§2) On day 0, BALB/c mice were injected intravenously with the 1-2 mg 1B11 monoclonal anti-collagen II antibody. On day 1, animals were injected intraperitoneally with 20 μg LPS, and treatment with PAR-2 antagonists (200 mg/kg/day, intraperitoneally) for 7 days. After treatment was completed, disease is quantified by measuring the thickness (swelling) in both hind feet of the mouse. This was compared to untreated mice (p<0.05 vs. vehicle control).

[5] = test system: BALB/c mice, LPS induced weight loss; test: Arthrogen-CIA induced body weight loss in mice; assay type: in vivo, mouse; conditions: 200 mg/kg/day intraperitoneally for 7 days
Procedure: as §2, with “i.v.” for “intravenously”, “mg/kg/day” for “mg/kg/day,”, “mice. This model results in significant weight loss associated with the administration of LPS.” for “mice (p<0.05 vs. vehicle control).”

Compound: SLIGKV [ENMD-1003, reference compound]
Calcium mobilization / PAR-2 signaling activity (in words) (PAR-2 [1]): typical spike of calcium release followed by degradation of signal

Compound: SLIGKA [ENMD-1013]
Calcium mobilization / PAR-2 signaling activity (in words) (PAR-2 [1]): robust signaling activity

IC50 (PAR-2 [2]; AP2 stimulated HT29 cells (FIG. 4)): < 500 µM
Inhibitory effect on PAR-1 signaling (PAR-1): no inhibitory effect
Effect on PAR-2 peptide induced edema (vascular response) (PAR-2 [3]): blocked
Compound: LIGK [ENMD-1005]
Calcium mobilization / PAR-2 signaling activity (in words) (PAR-2 [1]): Neither truncated molecule was able to induce calcium mobilization
Block of AP2 signaling (PAR-2 [2]; 1 mM LIGK against 100 uM SLIGKV (FIG. 3)): completely blocked
PAR-2 antagonist activity in vitro (in words) (PAR-2 [2]): demonstrated antagonist activity
Inhibitory effect on ATP signaling (ATP signaling): no inhibitory effect
Inhibition of angiogenesis (hemoglobin content in the plug) ([4]; highest dose): more than 80%
Inhibition of angiogenesis (in words) [4]: dose dependent inhibition of angiogenesis
Effect on inflammation / arthritis (BALB/c mice, arthritis): inhibited inflammation
Effect on LPS induced weight loss [5]: abrogated this LPS induced weight loss

Compound: SLIAKV [ENMD-1011]
Calcium mobilization / PAR-2 signaling activity (in words) (PAR-2 [1]): robust signaling activity

Inhibitory effect on PAR-1 signaling (PAR-1): no inhibitory effects
Compound: Br.CC(C)CC(=O)N1CCN(C(=O)CCCCCN)CC1 [ENMD-1068, 1-(4-(3-methylbutanoyl)piperazin-1-yl)-(6′-aminohexan-1-amide) hydrobromide]
PAR-2 AP2 Signaling Treated/Control (PAR-2 [2]; mimetic antagonists, AUC of calcium mobilization treated/control, initially screened at 1 mM compound): 0.58
PAR-2 antagonist activity in vitro (in words) (PAR-2 [2]): inhibitor of PAR-2 signaling in vitro
Inhibitory effect on ATP signaling (ATP signaling): no inhibitory effects
Effect on inflammation / arthritis (BALB/c mice, arthritis): inhibited inflammation

Compound: LIGKV [ENMD-1007]
Calcium mobilization / PAR-2 signaling activity (in words) (PAR-2 [1]): Neither truncated molecule was able to induce calcium mobilization
PAR-2 antagonist activity in vitro (in words) (PAR-2 [2]): demonstrated antagonist activity

— patent publication US20060063930A1, “Compositions and methods comprising proteinase activated receptor antagonists” (priority 2004, published 2006)
